Source: US20220017866A1, “PRODUCTION METHODS FOR MEGAKARYOCYTES AND PLATELETS” (KYOTO UNIVERSITY, priority 2013, published 2022)
Where a SMILES comes first, the peptide text is derived from it. The star is where a group is joined. Cbz = O=C(OCc1ccccc1)*; CH2F = FC*

What was measured:
[1] = test system: c-MYC-DD-2A-BMI1-introduced cells
Experimental: (§1) Therefore, the activity of caspase-3/7 in the presence of Shield-1 was then measured.

[2] = test system: caspase-3/7; assay: Caspase-3/7 activity in the presence of Shield-1; format: cell-based, human; settings: Day 2
Experimental: as §1

[3] = test system: megakaryocytic progenitor cells; assay: Expanding culture of c-Myc and BMI1-introduced cells with caspase inhibitor added in place of BCL-XL; format: cell-based, human; settings: 30 μM added after c-Myc and BMI1 introduction; culture for 66 days
Experimental: In place of expressing BCL-XL, another method for controlling caspase was investigated as follows. After c-Myc and BMI1 were introduced, a caspase inhibitor, i.e., Z-VAD FMK (Merck) (10 μM or 30 μM) was added. In this condition, culture was continued for 66 days. When BCL-XL was expressed, the cells proliferated by 64 times; whereas when 30 μM of Z-VAD FMK was added, the cells proliferated by 21 times (FIG. 10). In contrast, when DMSO was used (negative control), no proliferation was observed. Furthermore, when DMSO was used, the number of Annexin V positive cells was counted. As a result, many Annexin V positive cells were present (66.5%). From this, it was confirmed that apoptosis was not suppressed.

In the case of CC[C@H](C(=O)N1CCCC[C@H]1C(=O)O[C@H](CCc1ccc(OC)c(OC)c1)c1cccc(OCCN2CCOCC2)c1)c1cc(OC)c(OC)c(OC)c1 [Shield-1], the toxic effect [1] is reported as “did not have toxic effect”, the “number of megakaryocytic progenitor cells” value ([1]; c-MYC expression stabilized by adding Shield-1, Day 7) is reported as “decreased in volume-dependent manner” and the “activity of caspase-3/7” value [2] is reported as “caspase was activated”.

COC(=O)C[C@H](NC(=O)[C@H](C)NC(=O)[C@@H](NC(=O)OCc1ccccc1)C(C)C)C(=O)CF [Z-VAD FMK] (Cbz-Val-Ala-Asp(OMe)-CH2F) showed a cell proliferation [3] of 21 times.
